Measured values taken from a melting point compilation (Tetko et al.; mined from patent text by program, amines drawn as free bases though some values may be those of a salt).

SMILES	melting point [°C]
CCOC(=O)C(=O)CC(=O)c1cn(Cc2cccc(OC)c2)c2ccccc2c1=O	177 to 179
[N-]=[N+]=Nc1cc(OCCO)ncn1	49 to 50
CCS(=O)(=O)Nc1ccc([N+](=O)[O-])cc1OC1CCCCC1	94 to 95
Cc1nc(N2CCN(Cc3ccc(F)cc3)C2=O)sc1C(=O)NCc1ccccn1	183 to 185
CC(C)c1nnc2c3ccc(Cl)cc3c(-c3ccccc3)nn12	214 to 216
CC(c1ccc(Cl)cc1)N1Cc2sc3ncn(CCN4CCN(c5cccc6ccccc56)CC4)c(=O)c3c2C1 (stereo not given)	149
O=C(CSCCOc1ccccc1)NNC(=O)c1ccc(Cl)nc1	136 to 138
O=CNC(CC(=O)O)c1ccccc1 (stereo not given)	135 to 136
CCCN1CCC(c2n[nH]c3cc(F)ccc23)CC1	175 to 177
CCCCCCCCCCCCCCOc1ccc2c(C)c(C(=O)O)oc2c1	105 to 108
CC(=O)OCCCn1c(NC(=O)c2cccs2)nc2cc(C(=O)N(C)C3CCCCC3)ccc21	74 to 76
COc1ccc(OC)c2c(C=O)c3ccccc3c(C=O)c12	208 to 212
Clc1cccc(Nc2ncc3cc4ccccc4n3n2)c1	174 to 176
CC(C)S(=O)(=O)c1cnc2c(c1)nc(CC(C)(C)C)n2CC1(O)CCOCC1	179
CN1c2ccccc2CC(=O)c2ccccc21	92 to 93
O=C(C[N+](=O)[O-])OCCSc1ccccc1	22 to 24
CN(C)NC(=O)C(C)(C)C	120 to 122
CCS(=O)c1ccc(-c2nc3n(c2-c2ccncc2)CCC3)cc1 (stereo not given)	108 to 110
CC(=CCO)COc1ccc([N+](=O)[O-])cc1	41 to 43
Cc1cc(C)c(C(=O)c2ccc(Cl)cc2)c(Cl)c1	41 to 52
CCCCOc1c(CNC(=O)OCC2c3ccccc3-c3ccccc32)n(CC(C)C)c(=O)c2ccc(-c3nc(C)c(C(=O)OCC)s3)cc12	203 to 204

SMILES	melting point [°C]
COC(=O)c1ccc2c(c1)N(C(=O)c1ccc(C3CCCCC3)cc1)Cc1cccn1C2	174 to 176
O=C1CCN(CCc2ccccc2)CC1C(c1ccccc1)c1ccccc1 (stereo not given)	73 to 76
CC(=O)Nc1cc2cc(N)ccc2oc1=O	250 to 252
COc1cc(F)ccc1-c1ccc(S(=O)(=O)N2c3ccccc3CC2C(=O)NCCOc2ccc(C(=O)OC(C)(C)C)cc2)cc1 (stereo not given)	86
CS(=O)(=O)c1ccc(-c2cnn(CC(F)(F)F)c(=O)c2Nc2ccc(F)cc2F)cc1	170 to 175
CCCNC(=S)NC1=Nc2ccccc2CS1	180 to 184
CC(C(=O)O)c1ccc(-c2ccccc2)c(O)c1 (stereo not given)	112 to 119
NC(=O)c1nnsc1NCCCCCCCCCCCCCCc1ccccc1	79 to 81
O=C(CCl)Nc1ccc2c(c1NC(=O)c1cccc(Cl)c1)C(=O)c1ccccc1C2=O	188 to 189
CCOC(=O)Cc1cccc(Cc2nc3cc(F)cc(F)c3s2)c1	66 to 67
O=C1N=NC(=O)N1c1c(F)c(F)c(F)c(F)c1F	88 to 91
Cc1nc2nc(C(=O)NO)cc(S)n2n1	178 to 179
CC(=O)NCc1cc2n(n1)-c1ccc([N+](=O)[O-])cc1C(c1ccccc1)=NC2	208 to 211
COc1ccc(/C=C/c2nc3c([nH]2)c(=O)n(C)c(=O)n3C)c(OC)c1C	> 280
CCC(C)(OCc1nn(Cc2ccccc2)c2ccccc12)C(=O)O (stereo not given)	66 to 67
CS(=O)(=O)c1ccc(-c2ccc(C(F)F)n2-c2ccc(F)cc2)cc1	111 to 112
COC(=O)Cn1c(C(=O)Nc2nc(-c3cc(OC)ccc3OC)c(CC3CCCCC3)s2)cc2cc(C)cc(C)c21	89 to 92
CC(C)(C)OC(=O)Nc1ccc2c3c(cc([N+](=O)[O-])c2c1)N(C(=O)C(F)(F)F)CC3CCl (stereo not given)	219 to 220
CCOC(=O)N1CCN(CCNc2ncnc3c2sc2nc(N(C)C)c4c(c23)CC(C)(C)CC4)CC1	138 to 140
O=C(O)c1cc(Oc2ccc(Cl)cc2)c(Cl)cc1[N+](=O)[O-]	160 to 162
CCCc1c(OCCCCCc2nnn[nH]2)ccc(C(C)=O)c1O	95 to 96

SMILES	melting point [°C]
Nc1ccc(-c2ccc(-c3ccc(N)cc3Cl)o2)c(Cl)c1	192 to 193
CN(C)C1Cc2cccc3[nH]c(=O)n(c23)C1 (stereo not given)	220 to 223
CC(C)(C)c1cc2c(c(C(C)(C)C)c1)OC(=O)C2c1ccc(O)cc1 (stereo not given)	187 to 190
ClCc1ccc(OCCOc2ccccc2)cc1	159 to 160
COc1cc(C=CC(C)=O)ccc1OCC1CO1 (stereo not given)	123 to 124
COc1cc(OC)c2cc(-c3cc(OC)c(OC)c(OC)c3)oc2c1	131 to 132
COc1ccc(S(=O)(=O)Nc2cccnc2Nc2ccc(OC(=O)N(C)C)cc2)cc1	202 to 203
O=[N+]([O-])c1cc(C2=NOC(c3cc(C(F)(F)F)cc(C(F)(F)F)c3)(C(F)(F)F)C2)ccc1-n1cnnn1 (stereo not given)	173 to 175
O=[N+]([O-])c1cccc(C=NC2CCOc3ccccc32)c1 (stereo not given)	117 to 118
CCOC(=O)c1ccc(-c2ccc(OCCO)c(-c3ccc(N(CC)CC)c(C(C)(C)C)c3)c2)cc1	127
OC(CNc1ccc(Cl)cc1)Cn1ccnc1 (stereo not given)	123 to 125
c1ccc(C2CNc3ccccc3C2)cc1 (stereo not given)	84 to 86
O=C(Nc1cccnc1)C(Cl)(Cl)Cl	149 to 151
O=C(c1cccc(C(F)(F)F)c1F)N1CCN(Cc2cncc(Nc3cc[nH]n3)n2)CC1	160 to 163
CCn1cc(C(=O)O)c(=O)c2cc(F)c(N3CCN(S(=O)(=O)c4ccc(OC)cc4)CC3)c(F)c21	252 to 253
CN1C(=O)C2(COc3cc4c(cc32)OCCO4)c2c(-c3ccoc3)cccc21 (stereo not given)	178 to 180
CC(=O)Nc1c([N+](=O)[O-])cnn1-c1c(F)cc(C(F)(F)F)cc1Cl	129 to 130
COc1ccc2cc(C(C)C(=O)ON(C(N)=O)C(C)c3cc4ccccc4s3)ccc2c1 (stereo not given)	62 to 70
O=Cc1cccc(/C=C/c2ccc3cc(F)ccc3n2)c1	110 to 111
O=C1CCCN1S(=O)(=O)c1ccc2ccccc2c1	118 to 120

Results, then the compound that gave them:

melting point [°C]	SMILES
53.8 to 54	COC(=O)c1cc2ccccc2o1
125 to 127	CCOC(=O)c1ccc(OCCCN2CCN(c3ccc(Cl)nn3)CC2)cc1
137 to 139	Cc1cnc(C2CCCCC2)n2c1c(CCBr)c1ccccc12
90.5 to 91.5	O=C1C2CCCN2S(=O)(=O)N1CSc1ccccc1 (stereo not given)
107 to 108	N#CC(N)=C(N)Sc1ccc(Cl)cc1
202 to 203	CN(C)c1cnn(C)c(=O)c1-c1ccccc1C=NO
241 to 242	Cc1ccc(S(=O)(=O)n2cc(F)c(=O)[nH]c2=O)cc1
68	COc1ccc(S(=O)(=O)C(C)(Cc2ccc(OCCN3CCCCCC3)cc2)C(=O)NO)cc1 (stereo not given)
130 to 132	COC(C(=O)Nc1cc(Cl)cc(Cl)c1)C(=O)OC(C)(C)C (stereo not given)
102 to 106	COc1ccccc1Oc1c(NS(=O)(=O)c2ccc(C(C)(C)C)cc2)nc(NCCN(C)C)nc1OCCO
258 to 260	Cc1c(NC(=O)c2ccc(-c3ccc(F)cc3)cc2)ccc2cc(CN3CCC(CC(N)=O)CC3)cnc12
166 to 169	CC(C)C(=O)Nc1nc(Cl)c([N+](=O)[O-])c(Cl)n1
230 to 233	O=C1NCCN1c1nc(-c2ccc(Br)cc2)cs1
81 to 82	CCCCCCCCCCCCCCOc1ccc(O)cc1
106 to 108	CS(=O)(=O)OC1CC(n2ccc(=O)[nH]c2=O)OC1COC(c1ccccc1)(c1ccccc1)c1ccccc1 (stereo not given)
149 to 151	CCC1(CCCCN2CCc3sccc3C2)C(=O)Nc2ccc(Br)cc21 (stereo not given)
203 to 204	CCN1CCN(Cc2ccc(NC(=O)Nc3ccc(Oc4cc(Cl)ncn4)cc3)cc2)CC1
184	CCOC(=O)c1c(O)n(C)c2cc(-c3ccncc3)ccc2c1=O
244 to 246	CC1CCC(C(=O)Nc2ccc(-c3ncc(-c4ccc(NC(=O)C5CCCCCC5)cc4)[nH]3)cc2)CC1 (stereo not given)

melting point [°C]	SMILES
99	Nc1ccc(Sc2ccccc2)cc1
> 300	CCn1c(=O)c2[nH]c(/C=C/c3ccc(F)c(F)c3)nc2n(CC)c1=O
288 to 290	Cc1[nH]c(-c2ccccc2)c(NC(=O)CN2C(=O)c3ccccc3C2=O)c1C(=O)c1ccccc1
65 to 68	CCC(C)Oc1ccc(OCCNC(=O)C2CC2)cc1 (stereo not given)
84 to 86	COc1ccc2[nH]c(SCc3ncc(F)c(N4CCOCC4)c3C)nc2c1
194	CCNS(=O)(=O)Oc1cc(C(C)(C)C)c(SC2=C(O)CC(CCc3ccc(N)cc3)(CCc3ccc(N)cc3)OC2=O)cc1C
46	C#CC12CC3CC(C1)CC(C#C)(C3)C2
120 to 123	Cc1ccnc(C(O)c2ccc(N)cc2C(F)(F)F)c1 (stereo not given)
174 to 175	ON=C1CCCc2c1ccc1ccccc21
83	CC(=O)n1ncc2c(OCC3CO3)cccc21 (stereo not given)
193 to 195	OC(Cn1cncn1)(Cn1cnc(C=Cc2ccc(C(F)(F)F)cc2)n1)c1ccc(OC(F)(F)F)cc1 (stereo not given)
151 to 152	O=C1NC(=O)C(CCCc2ccc3oc(Cc4ccc5ccccc5c4)nc3c2)O1 (stereo not given)
214 to 216	Cc1ccc(C2=C(c3ccc(S(C)(=O)=O)cc3)CN(C3CC3)C2=O)cc1
155 to 156	COC(=O)N(C(=O)CC(O)(Cn1cncn1)c1ccc(Cl)cc1Cl)C(=O)OC (stereo not given)
168	CCC1(C)Cc2cc(OCC(=O)O)c(Cl)c(Cl)c2C1=O (stereo not given)
108	O=S(=O)(CCl)c1ccc(O)c(Cl)c1
243 to 244	Cc1cc(Nc2cncc(Nc3cccc(NC(=O)c4ccccc4)c3)n2)n[nH]1
198 to 203	CCOC(=O)c1cn(-c2csnn2)c2cc(F)c(F)cc2c1=O
192 to 193	CC(=O)OC1CCC2(C)C(=CCC3C2CCC2(C)C(C(C)CCC(=O)O)CCC32)C1 (stereo not given)
